Data reported in PMC6979384, “Characterization of the plant homeodomain (PHD) reader family for their histone tail interactions” (Epigenetics & Chromatin, 2020).

Legend:
Experiment in all cases: Histone peptide microarray
Format in all cases: binding, human
[1] = test system: BPTF (PB); details: GST-tagged BPTF (PB = PHD + Bromodomain); sheet Array Heatmap; each array performed twice, total n = 4
Outline: (§1)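 GST-tagged PHD finger readers were expressed, purified and applied at 0.5 μM to a microarray of 293 synthetic histone peptides carrying single or combinatorial PTMs, using an optimized protocol. Binding signals are averages with standard deviation from 4 replicates.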

[2] = test system: KDM5B (3); details: GST-tagged KDM5B (3); sheet Array Heatmap; each array performed twice, total n = 4
Outline: as §1

[3] = test system: TAF3; details: GST-tagged TAF3; sheet Array Heatmap; each array performed twice, total n = 4
Outline: as §1

[4] = test system: TRIM66 (PB); details: GST-tagged TRIM66 (PB = PHD + Bromodomain); sheet Array Heatmap; each array performed twice, total n = 4
Outline: as §1

[5] = test system: MORC3 (CW); details: GST-tagged MORC3 (CW = CW-type Zn-finger); sheet Array Heatmap; each array performed twice, total n = 4
Outline: as §1

[6] = test system: SP140L; details: GST-tagged SP140L; sheet Array Heatmap; each array performed twice, total n = 4
Outline: as §1

[7] = test system: AIRE (PP); details: GST-tagged AIRE (PP); sheet Array Heatmap; each array performed twice, total n = 4
Outline: as §1

[8] = test system: PHF8; details: GST-tagged PHF8; sheet Array Heatmap; each array performed twice, total n = 4
Outline: as §1

[9] = test system: KDM5A (3); details: GST-tagged KDM5A (3); sheet Array Heatmap; each array performed twice, total n = 4
Outline: as §1

[10] = test system: PHRF1 (RP); details: GST-tagged PHRF1 (RP); sheet Array Heatmap; each array performed twice, total n = 4
Outline: as §1

[11] = test system: ING3; details: GST-tagged ING3; sheet Array Heatmap; each array performed twice, total n = 4
Outline: as §1

[12] = test system: PHF2; details: GST-tagged PHF2; sheet Array Heatmap; each array performed twice, total n = 4
Outline: as §1

[13] = test system: PHF23; details: GST-tagged PHF23; sheet Array Heatmap; each array performed twice, total n = 4
Outline: as §1

[14] = test system: ING1; details: GST-tagged ING1; sheet Array Heatmap; each array performed twice, total n = 4
Outline: as §1

[15] = test system: CHD4 (PPCC); details: GST-tagged CHD4 (PPCC = Dual PHD + Dual Chromodomain); sheet Array Heatmap; each array performed twice, total n = 4
Outline: as §1

[16] = test system: KDM4C (TTP); details: GST-tagged KDM4C (TTP = Tandem Tudor domain + PHD); sheet Array Heatmap; each array performed twice, total n = 4
Outline: as §1

[17] = test system: PHF13; details: GST-tagged PHF13; sheet Array Heatmap; each array performed twice, total n = 4
Outline: as §1

[18] = test system: DIDO1; details: GST-tagged DIDO1; sheet Array Heatmap; each array performed twice, total n = 4
Outline: as §1

[19] = test system: CHD5 (PPCC); details: GST-tagged CHD5 (PPCC = Dual PHD + Dual Chromodomain); sheet Array Heatmap; each array performed twice, total n = 4
Outline: as §1

[20] = test system: KDM5B (1); details: GST-tagged KDM5B (1); sheet Array Heatmap; each array performed twice, total n = 4
Outline: as §1

[21] = test system: KDM7A; details: GST-tagged KDM7A; sheet Array Heatmap; each array performed twice, total n = 4
Outline: as §1

[22] = test system: ING2; details: GST-tagged ING2; sheet Array Heatmap; each array performed twice, total n = 4
Outline: as §1

[23] = test system: DPF2 (PPC2W2); details: GST-tagged DPF2 (PPC2W2 = Dual PHD + C2W2-type Zn-finger); sheet Array Heatmap; each array performed twice, total n = 4
Outline: as §1

[24] = test system: MLL5; details: GST-tagged MLL5; sheet Array Heatmap; each array performed twice, total n = 4
Outline: as §1

[25] = test system: BAZ2B; details: GST-tagged BAZ2B; sheet Array Heatmap; each array performed twice, total n = 4
Outline: as §1

[26] = test system: ING5; details: GST-tagged ING5; sheet Array Heatmap; each array performed twice, total n = 4
Outline: as §1

[27] = test system: CHD5 (PCC); details: GST-tagged CHD5 (PCC = PHD + Dual Chromodomain); sheet Array Heatmap; each array performed twice, total n = 4
Outline: as §1

[28] = test system: PHF21A; details: GST-tagged PHF21A; sheet Array Heatmap; each array performed twice, total n = 4
Outline: as §1

[29] = test system: KDM5A (1); details: GST-tagged KDM5A (1); sheet Array Heatmap; each array performed twice, total n = 4
Outline: as §1

[30] = test system: RAG2; details: GST-tagged RAG2; sheet Array Heatmap; each array performed twice, total n = 4
Outline: as §1

[31] = test system: ING4; details: GST-tagged ING4; sheet Array Heatmap; each array performed twice, total n = 4
Outline: as §1

Row | Substance | Array Heatmap signal (histone peptide microarray) [1] | Array Heatmap signal (histone peptide microarray) [2] | Array Heatmap signal (histone peptide microarray) [3] | Array Heatmap signal (histone peptide microarray) [4] | Array Heatmap signal (histone peptide microarray) [5] | Array Heatmap signal (histone peptide microarray) [6] | Array Heatmap signal (histone peptide microarray) [7] | Array Heatmap signal (histone peptide microarray) [8] | Array Heatmap signal (histone peptide microarray) [9] | Array Heatmap signal (histone peptide microarray) [10] | Array Heatmap signal (histone peptide microarray) [11] | Array Heatmap signal (histone peptide microarray) [12] | Array Heatmap signal (histone peptide microarray) [13] | Array Heatmap signal (histone peptide microarray) [14] | Array Heatmap signal (histone peptide microarray) [15] | Array Heatmap signal (histone peptide microarray) [16] | Array Heatmap signal (histone peptide microarray) [17] | Array Heatmap signal (histone peptide microarray) [18] | Array Heatmap signal (histone peptide microarray) [19] | Array Heatmap signal (histone peptide microarray) [20] | also measured
1 | H3R2me2a + K4me3 + K9ac + S10p + K14ac + K18ac: H3 1-20 | 0.3887 | 0.4836 | 0.4085 | 0.5406 | 0.5411 | 0.3224 | 0.4047 | 0.4417 | 0.601 | 0.447 | 0.4975 | 0.7095 | 0.5457 | 0.5459 | 0.6237 | 0.4723 | 0.6389 | 0.8949 | 0.548 | 0.6513 | Array Heatmap signal (histone peptide microarray) [21]: 0.3601; Array Heatmap signal (histone peptide microarray) [22]: 0.6564; Array Heatmap signal (histone peptide microarray) [23]: 0.6777; Array Heatmap signal (histone peptide microarray) [24]: 0.625; Array Heatmap signal (histone peptide microarray) [25]: 0.4937; Array Heatmap signal (histone peptide microarray) [26]: 0.3501; Array Heatmap signal (histone peptide microarray) [27]: 0.7925; Array Heatmap signal (histone peptide microarray) [28]: 0.4526; Array Heatmap signal (histone peptide microarray) [29]: 0.4602; Array Heatmap signal (histone peptide microarray) [30]: 0.3777; Array Heatmap signal (histone peptide microarray) [31]: 0.4604
2 | H3R2me2a + K4me3 + S10p: H3 1-20 | 0.396 | 0.5192 | 0.3453 | 0.5905 | 0.6914 | 0.356 | 0.4162 | 0.5293 | 0.7062 | 0.4776 | 0.4991 | 0.8067 | 0.5952 | 0.6296 | 0.5987 | 0.4873 | 0.6271 | 0.8994 | 0.5451 | 0.6814 | Array Heatmap signal (histone peptide microarray) [21]: 0.3687; Array Heatmap signal (histone peptide microarray) [22]: 0.6788; Array Heatmap signal (histone peptide microarray) [23]: 0.7179; Array Heatmap signal (histone peptide microarray) [24]: 0.6475; Array Heatmap signal (histone peptide microarray) [25]: 0.4437; Array Heatmap signal (histone peptide microarray) [26]: 0.3497; Array Heatmap signal (histone peptide microarray) [27]: 0.741; Array Heatmap signal (histone peptide microarray) [28]: 0.4392; Array Heatmap signal (histone peptide microarray) [29]: 0.4568; Array Heatmap signal (histone peptide microarray) [30]: 0.4658; Array Heatmap signal (histone peptide microarray) [31]: 0.4698
3 | H3R2me2a + K4me3: H3 1-20 | 0.4143 | 0.6231 | 0.3674 | 0.6477 | 0.8119 | 0.3488 | 0.4826 | 0.6195 | 0.8444 | 0.4573 | 0.5638 | 0.6438 | 0.6448 | 0.5767 | 0.5963 | 0.6181 | 0.6893 | 0.8005 | 0.5913 | 0.7318 | Array Heatmap signal (histone peptide microarray) [21]: 0.5712; Array Heatmap signal (histone peptide microarray) [22]: 0.6869; Array Heatmap signal (histone peptide microarray) [23]: 0.6763; Array Heatmap signal (histone peptide microarray) [24]: 0.7481; Array Heatmap signal (histone peptide microarray) [25]: 0.4862; Array Heatmap signal (histone peptide microarray) [26]: 0.4004; Array Heatmap signal (histone peptide microarray) [27]: 0.8429; Array Heatmap signal (histone peptide microarray) [28]: 0.4989; Array Heatmap signal (histone peptide microarray) [29]: 0.4987; Array Heatmap signal (histone peptide microarray) [30]: 0.449; Array Heatmap signal (histone peptide microarray) [31]: 0.4758
